According to patent publication US8729053B2, “Nuclear factor kappa B pathway inhibitor composition and use of same” (The United States of America, as represented by the …, priority 2008, dated 2014):

Columns and labels:
[1] = system: SRE (Serum response element); experiment: SRE luciferase reporter assay in HEK293 cells; type: cell-based; conditions: HEK293, TPA 10 ng/ml 18 hours
Protocol: (§1) All expression plasmids were transiently transfected into HEK293 cells in a 96-well plate (0.1 μg/well) by using Effectene transfection reagent (Qiagen, Valencia, Calif.) according to the manufacturer's manual. HEK293 cells were maintained in Dulbecco's modified Eagle medium (Sigma, St. Louis, Mo.) supplemented with 10% fetal bovine serum (Atlanta Biologicals, Lawrenceville, Ga.) and incubated at 37° C. in a 5% CO2 incubator. After 24 hrs incubation, the medium was changed to DMEM with 0.2% FBS, and the transfectants were exposed to various concentrations of compound I and TPA (10 ng/ml). Cells were lysed with passive lysis buffer and the luciferase assay was performed using the Firefly-Luciferase reporter assay system (Promega, Madison, Wis.) and MLX Luminometer (Dynex Technology, Chantilly, Va.).
Three different luciferase reporter genes, AP-1 reporter containing four times TRE consensus originated from GCN4 and SRE reporter purchased from Stratagene (La Jolla, Calif.) respectively are as described previously (Suzukawa et al., Environ. Health Perspect., 2002, 110, 865-70). NFκB reporter is driven by five times NFκB responsive element inserted into Cis-reporter backbone (Stratagene, La Jolla, Calif.). […]

[2] = system: AP-1; experiment: AP-1 luciferase reporter assay in HEK293 cells; type: cell-based; conditions: HEK293, TPA 10 ng/ml 18 hours
Protocol: as §1
Three different luciferase reporter genes, AP-1 reporter containing four times TRE consensus originated from GCN4 and SRE reporter purchased from Stratagene (La Jolla, Calif.) respectively are as described previously (Suzukawa et al., Environ. Health Perspect., 2002, 110, 865-70). NFκB reporter is driven by five times NFκB responsive element inserted into Cis-reporter backbone (Stratagene, La Jolla, Calif.). Others include mouse COX-2 promoter region from −203 to +70 relative to the transcription site inserted into pTIS10L vector (Kim and Fischer, J. Biol. Chem., 1998, 273, 27686-94), human uPAR promoter region from −141 to +47 relative to transcription start site in pGL3 vector (Wang et al., Eur. J. Biochem., 2000, 267, 3248-54), and human VEGF promoter sequence from −2274 to +379 inserted into the pGL2 vector (Ding et al., J. Biol. Chem., 2006, 281, 9093-100). […]

[3] = system: NFκB; experiment: NFκB luciferase reporter assay in HEK293 cells; type: cell-based; conditions: at 1 to 8 μM, TPA 10 ng/ml 18 hours
Protocol: as §1
Three different luciferase reporter genes, AP-1 reporter containing four times TRE consensus originated from GCN4 and SRE reporter purchased from Stratagene (La Jolla, Calif.) respectively are as described previously (Suzukawa et al., Environ. Health Perspect., 2002, 110, 865-70). NFκB reporter is driven by five times NFκB responsive element inserted into Cis-reporter backbone (Stratagene, La Jolla, Calif.). Others include mouse COX-2 promoter region from −203 to +70 relative to the transcription site inserted into pTIS10L vector (Kim and Fischer, J. Biol. Chem., 1998, 273, 27686-94), human uPAR promoter region from −141 to +47 relative to transcription start site in pGL3 vector (Wang et al., Eur. J. Biochem., 2000, 267, 3248-54), and human VEGF promoter sequence from −2274 to +379 inserted into the pGL2 vector (Ding et al., J. Biol. Chem., 2006, 281, 9093-100).
To evaluate whether the compound I biological activity can imitate TAM67 specificity, three different transcriptional promoter reporters were used, AP-1, NFκB, and SRE (Serum response element) in luciferase reporter assays (FIG. 1A: The transfected cells were pre-treated with varied concentrations of compound I or DMSO for 1 hour before 18 hours stimulation by TPA (10 ng/ml) or DMSO as vehicle. An asterisk (*) indicates a separate experiment with NFκB dependent luciferase only. Assays were performed with two independent experiments each in quadruplicate.). All three activities were induced by TPA but only induction of AP-I and NFκB were inhibited by TAM67. The SRE reporter was used as a specificity control and indicator of cell proliferation. TPA-induced SRE activity was not repressed by TAM67 when coexpressed with the SRE-Luc reporter in HEK293 cells. The same concentration (10 ng/ml, 16.2 nM) and incubation time (18 hrs) were used for TPA induction as previously used for the high throughput screen (HTS) (Ruocco et al., J. Biomol. Screen., 2007, 12, 133-9) along with 1 h pretreatment of compound I. The screening results had tested concentrations as high as 40 μM compound I with cell numbers showing 95.5+/−6.2% of DMSO control (ave+/− sd, n=3) by the XTT assay in HEK293T cells.

[4] = molecular target: T1, IKKβ (Homo sapiens, UniProt O14920); experiment: K-LISA IKKβ Inhibitor Screening Kit in vitro assay; type: biochemical; conditions: 0.1 to 100 μM, incubated with ATP
T1 construct: purchased Calbiochem
T1 sequence (O14920 1-756): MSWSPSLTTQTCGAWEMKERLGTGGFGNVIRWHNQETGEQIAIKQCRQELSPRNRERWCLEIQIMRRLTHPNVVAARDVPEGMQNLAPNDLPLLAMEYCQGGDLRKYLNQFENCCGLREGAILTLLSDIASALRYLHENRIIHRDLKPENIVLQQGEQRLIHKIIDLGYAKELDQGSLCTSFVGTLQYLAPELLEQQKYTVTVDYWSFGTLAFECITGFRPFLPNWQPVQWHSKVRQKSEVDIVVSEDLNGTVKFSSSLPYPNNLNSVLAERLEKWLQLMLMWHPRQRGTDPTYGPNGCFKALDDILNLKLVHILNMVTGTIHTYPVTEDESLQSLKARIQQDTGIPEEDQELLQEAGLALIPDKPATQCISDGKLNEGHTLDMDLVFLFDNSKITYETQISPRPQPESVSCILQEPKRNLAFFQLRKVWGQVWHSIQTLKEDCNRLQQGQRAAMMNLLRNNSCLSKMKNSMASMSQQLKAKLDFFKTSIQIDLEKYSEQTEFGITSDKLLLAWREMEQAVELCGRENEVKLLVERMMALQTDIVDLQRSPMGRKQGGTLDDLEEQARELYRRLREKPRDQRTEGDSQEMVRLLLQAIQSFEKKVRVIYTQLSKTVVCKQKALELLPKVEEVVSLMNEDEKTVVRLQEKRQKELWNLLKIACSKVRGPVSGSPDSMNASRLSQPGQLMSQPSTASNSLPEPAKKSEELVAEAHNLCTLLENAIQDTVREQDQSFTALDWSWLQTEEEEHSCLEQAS
Protocol: In an attempt to determine whether compound I interferes with ATP binding to the catalytic site, the activity of compound I was measured with fully activated, phosphorylated IKKα or IKKβ. […] However, whether this compound interacts outside of the ATP binding pocket of IKK as an ATP non-competitive inhibitor similar to BMS-345541 is unknown. […] Luciferase activities with TPA induction alone were set at 100% and the relative activities with TPA in the presence of compounds are shown.

Inhibition of phosphorylation of IκBα peptide substrate catalyzed by IKKβ [4]	Structure (SMILES)	TPA-induced SRE luciferase activity [1]	Inhibition of TPA-induced AP-1 luciferase activity [2]	Inhibition of NFκB-Luciferase [3]
–	O=C(O)c1cc(/N=N/c2ccc(S(=O)(=O)Nc3ccccn3)cc2)ccc1O [sulfasalazine, reference compound]	no sparing	–	–
no inhibition	Cc1ccc2nc(NCCN)c3ncc(C)n3c2c1 [BMS-345541, reference compound]	–	without inhibition	dose-dependent inhibition
